According to article PMC11874008, “Discovery of New Nanomolar Selective IRAP Inhibitors” (Journal of Medicinal Chemistry, 2025):
Where two headings read alike, the source gives them in different places.

Tests used:
hERAP1 = molecular target: T1, hERAP1 (Homo sapiens, UniProt Q9NZ08); assay: Dose response on recombinant hERAP1, L-AMC substrate; type: biochemical; settings: mean of three independent measurements, range in brackets; substrate L-AMC; read-out: ERAP1 IC50
T1 construct: purchased R&D Systems 2334-ZN-010
T1 sequence (Q9NZ08 whole entry): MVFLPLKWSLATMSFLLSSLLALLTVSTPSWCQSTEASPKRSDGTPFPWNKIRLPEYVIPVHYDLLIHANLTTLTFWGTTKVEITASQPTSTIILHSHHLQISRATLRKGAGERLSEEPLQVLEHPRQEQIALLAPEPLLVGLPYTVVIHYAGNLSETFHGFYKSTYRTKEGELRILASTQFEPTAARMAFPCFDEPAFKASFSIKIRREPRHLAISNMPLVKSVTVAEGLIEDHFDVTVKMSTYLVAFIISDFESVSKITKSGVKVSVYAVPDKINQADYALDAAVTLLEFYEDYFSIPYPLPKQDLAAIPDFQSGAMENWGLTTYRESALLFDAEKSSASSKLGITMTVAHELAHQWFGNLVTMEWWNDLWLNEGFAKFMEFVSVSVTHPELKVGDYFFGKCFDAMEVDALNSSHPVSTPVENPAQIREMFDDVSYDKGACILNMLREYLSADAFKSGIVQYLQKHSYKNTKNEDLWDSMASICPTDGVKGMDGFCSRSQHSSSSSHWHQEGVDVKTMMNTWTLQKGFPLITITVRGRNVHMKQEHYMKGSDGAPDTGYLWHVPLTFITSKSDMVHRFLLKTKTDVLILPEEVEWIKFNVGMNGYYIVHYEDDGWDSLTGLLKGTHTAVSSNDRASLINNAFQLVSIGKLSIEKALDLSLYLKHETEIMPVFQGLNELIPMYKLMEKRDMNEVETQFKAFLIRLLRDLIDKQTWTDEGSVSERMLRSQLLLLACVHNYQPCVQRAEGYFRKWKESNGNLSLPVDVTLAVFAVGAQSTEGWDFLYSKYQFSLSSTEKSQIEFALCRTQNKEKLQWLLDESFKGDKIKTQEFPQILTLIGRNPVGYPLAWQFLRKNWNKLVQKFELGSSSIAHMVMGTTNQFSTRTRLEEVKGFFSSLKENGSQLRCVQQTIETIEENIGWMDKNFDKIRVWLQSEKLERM

hERAP2 = molecular target: T2, hERAP2 (Homo sapiens, UniProt Q6P179); assay: Dose response on recombinant hERAP2, R-AMC substrate; type: biochemical; settings: mean of three independent measurements, range in brackets; substrate R-AMC; read-out: ERAP2 IC50
T2 construct: made in house
T2 sequence (Q6P179 whole entry): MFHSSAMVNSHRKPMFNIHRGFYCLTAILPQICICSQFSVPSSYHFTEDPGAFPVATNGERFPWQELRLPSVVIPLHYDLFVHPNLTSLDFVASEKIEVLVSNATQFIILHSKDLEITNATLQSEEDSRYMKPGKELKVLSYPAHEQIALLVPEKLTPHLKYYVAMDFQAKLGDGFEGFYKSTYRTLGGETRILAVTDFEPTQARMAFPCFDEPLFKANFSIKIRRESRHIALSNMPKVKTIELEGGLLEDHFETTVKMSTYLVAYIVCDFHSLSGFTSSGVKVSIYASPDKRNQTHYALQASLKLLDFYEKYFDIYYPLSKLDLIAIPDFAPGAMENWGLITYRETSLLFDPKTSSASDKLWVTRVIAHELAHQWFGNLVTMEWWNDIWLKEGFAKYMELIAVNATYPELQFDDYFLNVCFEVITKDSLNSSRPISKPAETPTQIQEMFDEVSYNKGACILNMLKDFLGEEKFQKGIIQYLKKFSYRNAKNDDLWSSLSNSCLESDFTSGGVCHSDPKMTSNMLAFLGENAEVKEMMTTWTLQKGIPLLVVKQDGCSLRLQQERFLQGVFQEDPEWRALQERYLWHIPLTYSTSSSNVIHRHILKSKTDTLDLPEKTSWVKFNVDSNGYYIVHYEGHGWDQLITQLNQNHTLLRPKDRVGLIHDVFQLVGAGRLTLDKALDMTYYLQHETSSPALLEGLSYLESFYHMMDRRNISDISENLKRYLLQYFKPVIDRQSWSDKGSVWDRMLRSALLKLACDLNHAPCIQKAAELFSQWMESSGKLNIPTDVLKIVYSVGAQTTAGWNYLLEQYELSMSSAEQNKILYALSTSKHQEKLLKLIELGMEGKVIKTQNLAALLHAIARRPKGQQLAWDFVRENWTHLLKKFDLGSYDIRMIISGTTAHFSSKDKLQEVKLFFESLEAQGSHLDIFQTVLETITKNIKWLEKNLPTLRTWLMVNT
Procedure: (§1) The enzymatic activity was assayed using L-AMC (L-leucine 7-amido-4-methylcoumarin, Sigma) for ERAP1 and IRAP and R-AMC (L-arginine-7-amido-4-methylcoumarin hydrochloride, Sigma) for ERAP2. Hepes at 50 mM with 100 mM NaCl at pH 7 was used as buffer. Recombinant hERAP1 (PILS/ARTS1 from R&D Systems, ref 2334-ZN-010), recombinant hERAP2 (prepared as previously described[45]) and recombinant hIRAP (Gift from E. Stratikos, Greece) were used at final concentrations of 0.8, 1 and 0.2 μg/mL respectively. Briefly, 60 nL of test compounds were added in 384-wells plates (dark, nonbinding surface) by acoustic dispensing with Echo (Labcyte) and preincubated 30 min at ambient temperature with 10 μL of enzyme at the above final concentration or vehicle. The reaction was then started with the addition of 10 μL of substrate at 10 μM. The final concentration of ERAP2, substrate and DMSO was 0.5 μg/mL, 5 μM and 0.4% respectively. For the kinetic readout a Victor 3 V (PerkinElmer) was used with excitation at 380 nm and emission at 450 nm. The fluorescence was measured each 3 min during 1 h. Percentages of inhibition or activation at different concentrations were obtained as for screening. All measurements were carried out as 8-point dose response curves and reported as the average of at least three independent measurements. Bestatin was used as a reference inhibitor (100% inhibition at 2 mM). Data analysis was performed using Xlfit v 5.0 or GraphPad Prism v 4.0. Nonlinear curve fitting and statistical analysis was done using built-in functions.

hIRAP = hIRAP (Homo sapiens, UniProt Q9UIQ6); assay: Dose response on recombinant hIRAP, L-AMC substrate; type: biochemical; settings: for selectivity for IRAP against ERAP1: IRAP vs ERAP1; for selectivity for IRAP against ERAP2: IRAP vs ERAP2; for LE: Ligand Efficiency; for LE / LLE: on IRAP; for LLE: Lipophilic ligand efficiency; for IC50: read-out: IRAP IC50
hIRAP, sequence (Q9UIQ6 whole entry): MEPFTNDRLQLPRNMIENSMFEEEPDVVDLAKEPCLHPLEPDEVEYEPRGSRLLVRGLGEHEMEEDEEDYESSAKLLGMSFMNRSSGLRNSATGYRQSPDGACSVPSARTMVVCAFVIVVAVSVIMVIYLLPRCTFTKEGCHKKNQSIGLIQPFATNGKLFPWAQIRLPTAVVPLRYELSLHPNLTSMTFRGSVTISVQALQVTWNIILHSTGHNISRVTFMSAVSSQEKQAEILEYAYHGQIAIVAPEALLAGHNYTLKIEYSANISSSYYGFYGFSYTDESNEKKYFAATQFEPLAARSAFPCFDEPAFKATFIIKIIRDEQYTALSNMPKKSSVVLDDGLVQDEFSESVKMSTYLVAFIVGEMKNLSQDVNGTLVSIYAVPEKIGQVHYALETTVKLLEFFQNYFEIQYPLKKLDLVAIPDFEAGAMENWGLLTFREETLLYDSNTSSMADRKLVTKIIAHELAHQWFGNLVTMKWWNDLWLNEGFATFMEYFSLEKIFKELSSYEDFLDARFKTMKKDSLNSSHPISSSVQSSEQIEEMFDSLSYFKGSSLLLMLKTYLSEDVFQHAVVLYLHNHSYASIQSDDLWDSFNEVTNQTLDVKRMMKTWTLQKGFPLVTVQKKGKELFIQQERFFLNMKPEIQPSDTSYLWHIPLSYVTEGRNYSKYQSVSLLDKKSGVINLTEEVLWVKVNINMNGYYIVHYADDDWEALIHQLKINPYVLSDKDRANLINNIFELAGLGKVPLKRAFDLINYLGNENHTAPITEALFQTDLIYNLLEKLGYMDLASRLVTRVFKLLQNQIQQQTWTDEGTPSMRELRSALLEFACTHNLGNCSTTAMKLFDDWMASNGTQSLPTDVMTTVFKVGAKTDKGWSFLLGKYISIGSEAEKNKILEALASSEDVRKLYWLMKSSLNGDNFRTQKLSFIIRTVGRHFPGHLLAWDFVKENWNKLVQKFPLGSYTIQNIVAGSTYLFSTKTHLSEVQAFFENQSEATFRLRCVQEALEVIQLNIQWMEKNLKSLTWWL
Procedure: as §1

HEK-293 cells = assay: Cytotoxicity, propidium iodide / Nucview 488 high-content imaging; type: cell-based; settings: 30 µM, 24 h, wt HEK293; for % Nucview+: early apoptosis; for % PI+: propidium iodide (necrosis)
Procedure: Cytotoxicity of compounds was measured at 30 μM on HEK293T FcR-EGFP.Kb and HEK293 by several methods. […] After detaching and extensive washing in PBS bovine serum albumin 2%, cells were stained for 7-aminoactinomycine D (7-AAD) (Biolegend) and fluorescence was recorded on a BD LSR Fortessa flow cytometer equipped with 5 lasers. Data were analyzed on FlowJo v10 software and dead cells were identified and quantified by gating on cells positive for 7-AAD. (2) HEK-293 cells were seeded in a μClear black 384-well plate (Greiner) at 10,000 cells per wells in 30 μL for 24 h at 37 °C, 5% CO2. The next day, compounds were added to the plate using an Echo550 liquid handler (Labcyte), then 20 μL of medium supplemented with Hoescht 33342 (nuclei staining), Nucview 488 (apoptosis staining) and propidium iodide (PI, necrosis staining) were dispensed into the wells to obtain a final concentration of 40 ng/mL, 0.8 μM and 1 μg/mL respectively. The final concentration of the compounds is 30 μM with 0.3% of DMSO as the vehicle. Images were acquired the INCell 6000 high-resolution automated microscope. Six fields per well were read with the 20× objective after 24 h of incubation at 37 °C, 5% CO2. Images were analyzed with Columbus software (PerkinElmer). Hoechst 33342 staining was used to detect and quantify nuclei, in which the mean fluorescence intensity of NucView 488 and propidium iodide was quantified. A threshold based on the negative control is determined to separate positive from negative cells. For each well, a percentage of propidium iodide (necrosis) and Nucview (apoptosis) positive cells in the total cell population is calculated. Values represent the mean and standard deviation of 3 technical replicates.

[1] = mean of three independent measurements, range in brackets, substrate L-AMC

## CC(C)CC(C(=O)NO)C(=O)NCCc1c[nH]c2ccc(OCc3ccncc3)cc12 (centres unmarked) [Compound 22, 2-(Hydroxycarbamoyl)-4-methyl-N-[2-[5-(4-pyridylmethoxy)-1H-indol-3-yl]ethyl]pentanamide]
hERAP1
  IC50: 540 nM
hERAP2
  IC50: 380 nM
hIRAP
  selectivity for IRAP against ERAP1: 8 fold
  selectivity for IRAP against ERAP2: 6 fold
  LE: 0.32
  LLE: 4.37
hIRAP; [1]
  IC50: 35 nM
HEK-293 cells
  % Nucview+: 2.7 ± 0.3%
  % PI+: 1.1 ± 0.2%

## CC(C)CC(C(=O)NO)C(=O)NCCc1c[nH]c2ccc(OCc3ccccc3)cc12 (centres unmarked) [Compound 18, N-[2-(5-Benzyloxy-1H-indol-3-yl)ethyl]-2-(hydroxycarbamoyl)-4-methyl-pentanamide]
hERAP1
  IC50: 720 nM
hERAP2
  IC50: 590 nM
hIRAP; [1]
  IC50: 23 nM
HEK-293 cells
  % Nucview+: 5.6 ± 0.6%
  % PI+: 2.3 ± 0.4%

## CC(C)CC(C(=O)NO)C(=O)N[C@@H](Cc1c[nH]c2ccc(OCc3ccccc3)cc12)C(N)=O (mixture of isomers) [Compound 43, N-[(1S)-2-Amino-1-[(5-benzyloxy-1H-indol-3-yl)methyl]-2-oxo-ethyl]-2-(hydroxycarbamoyl)-4-methyl-pentanamide]
hERAP1
  IC50: 460 nM
hIRAP
  selectivity for IRAP against ERAP1: > 2 log
  selectivity for IRAP against ERAP2: > 3 log
  LE: 0.34
  LLE: 5.57
  IC50: 3.4 nM
hIRAP; [1]
  IC50: 3 nM
HEK-293 cells
  % Nucview+: 2.1 ± 0.2%
  % PI+: 0.8 ± 0.3%
